Test results from patent US20250169505A1, “INSECT PEST CONTROL BY A MIXTURE OF LURING SUBSTANCES WITH PATHOGENIC BIO-INSECTICIDES” (GREEN PROTECTA SA, priority 2022, published 2025).

System: thrips (Frankliniella occidentalis)
Experiment: Example 1: powder adherence on thrips body
Assay type: in vivo
Settings: mesh cage, Petri dish filled with powdery carrier
Text: From 250 individual thrips (Frankliniella occidentalis) sourced from the company Bionema Limited in Swansea, 50 were released in mesh cages where fresh flowers and green beans were growing, and which contained a Petri dish filled with one powdery carriers.

CCCCCCCCCCCCCCCCCC(=O)O [stearic acid]
fate of thrips after contact with the powder: died thereafter

O=C(CO)[C@@H](O)[C@H](O)[C@H](O)CO [fructose]
fate of thrips after contact with the powder: died thereafter
